From US20240174648A1, “Small Molecule Compound” (Technoderma Medicines Pte Ltd, priority 2019, published 2024) come the findings set out here.

What all share (type): biochemical
For test [1], the target named is JAK1 (Homo sapiens, UniProt P23458). The test can be described thus: JAK kinase inhibition assay (EZ Reader, peptide substrate phosphorylation) - JAK1. The settings on record: JAK1 kinase 20 nM; 8 concentration points, max 10 μM. A digest of the protocol:
(§1)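 Microfluidic mobility-shift detection of fluorescent peptide substrate phosphorylation, with JAK1 at 20 nM and JAK2, JAK3 and Tyk2 each at 1 nM final, in 20 mM HEPES pH 7.4, 10 mM MgCl2, 1 mM DTT. Reactions run at room temperature to 20–30% conversion, then EDTA-stopped. Compounds tested at 8 three-fold dilutions from 10 μM top final; IC50 from conversion curves.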

In test [2] the target is JAK2 (Homo sapiens, UniProt O60674). Kind of test: JAK kinase inhibition assay (EZ Reader, peptide substrate phosphorylation) - JAK2. The settings on record: JAK2 kinase 1 nM; 8 concentration points, max 10 μM. From the text: (§2) Assay for Identifying Inhibitory Effects of Compounds on JAK Kinases
(§3) Janus kinases (JAK), including JAK1, JAK2, JAK3 and Tyk2, transduce a cytokine-mediated signal through a JAK-STAT pathway. The kinases are 120-140 kDa in size and have 7 determined homology regions: JH1 to JH7. JH1 is an important region for enzymatic activity and has typical characteristics of tyrosine kinases. Phosphorylation of tyrosine leads to a change in the conformation of JAK protein, thereby promoting binding of substrate. The JAK-STAT system includes three main parts: receptors penetrating a cell membrane, Janus kinases binding to the receptors, and signal transducers and activators of transcription (STAT) for transmitting signals to a nucleus and DNA. When cytokines bind to receptors, JAK phosphorylates the receptors and attracts STAT proteins. The STAT proteins are also phosphorylated and combined with one another to form dimers. The dimers enter the nucleus and bind to DNA, thereby leading to gene transcription.
(§4) EZ Reader from PerkinElmer can be used to detect the phosphorylation of polypeptide substrates catalyzed by kinases. The device is based on microfluidic techniques, and can directly detect fluorescently labeled substrates and products. The separation step is achieved by controlling the pressure and electric field strength in the microfluidic chip. In kinase assays, a product conversion ratio is usually controlled to be 20-30%. A biological test is used to identify inhibitory effects of compounds on JAKs.
(§5) Compound powder was dissolved in DMSO, sealed and stored in a freezer under −20° C. The in-house compound Ref1 was used as a positive control for JAK1, JAK2 and Tyk2 tests, and Ref2 was used as a positive control for JAK3 tests.
(§6) S2.8. Assay buffer: 20 mM HEPES buffer, pH 7.4, 10 mM magnesium chloride, 0.01% bovine serum albumin BSA, 0.0005% Tween-20 and 1 mM dithiothreitol solution.
(§7) S2.9. Stop buffer: 180 mM HEPES buffer, 20 mM ethylenediaminetetraacetic acid and 0.2% coating reagent 3.
(§8) S2.10. Separation buffer: 100 mM HEPES buffer, 10 mM ethylenediaminetetraacetic acid, 0.0005% Tween 20, 0.1% coating reagent 3 and 1% dimethyl sulfoxide.
The compound was dissolved in dimethyl sulfoxide and diluted to 10 mM concentration, a certain volume of solution was taken and diluted to 0.6 mM concentration, 10 μL of the 0.6 mM dilution was added to a 384-well microplate, and then was diluted 3-fold with a total of 8 concentration points.
Positive control (HPE1): Ref1, final concentration: 10 μM […]
(§9) Negative control (ZPE): DMSO, final content: 1.6%
(§10) Compounds: maximum final concentration: 10 μM; 3-fold dilution, 8 concentration points and 2 duplicates.
(§11) S4.1. 250 nL of the compound was added to each well of the assay microplate by using ECHO, and centrifuged at 1000 rpm for 1 minute.
(§12) S4.2. 5 μL of the assay buffer was added and agitated for a few seconds to fully dissolve the compound.
(§13) S4.3. 5 μL of 3× substrate solution and 5 μL of 3× kinase solution were added and centrifuged at 800 rpm for 1 minute.
(§14) S4.4. Final concentrations of JAK1, JAK2, JAK3 and Tyk2 kinases in the reaction system were 20 nM, 1 nM, 1 nM and 1 nM respectively.
(§15) S4.5. Incubation at room temperature, where kinases had time differences, and different batches of kinases had time differences.
(§16) S4.6. When 20%-30% of the reaction completed, 15 μL of stop buffer was added to stop the reaction, and centrifuged at 1000 rpm for 2 minutes.
(§17) S4.7. The microplates were placed on EZ Reader for reading.
(§18) S4.8. Readings on EZ Reader were calculated by using a peak height, where product conversion ratio (%)=product/(product+substrate)*100.
(§19) 5. Data Processing: IC50 calculation
(§20) A graphing software Xlfit was used to form a concentration curve of the test compound, and an IC50 value was calculated.
(§21) “A” means “≥10 μM”; “B” means “≥1 μM and <10 μM”; “C” means “≥0.1 μM and <1 μM”; and “D” means “<0.1 μM”.

For test [3], the target named is T1, JAK3 (Homo sapiens, UniProt P52333).
T1 sequence (P52333 1-1124): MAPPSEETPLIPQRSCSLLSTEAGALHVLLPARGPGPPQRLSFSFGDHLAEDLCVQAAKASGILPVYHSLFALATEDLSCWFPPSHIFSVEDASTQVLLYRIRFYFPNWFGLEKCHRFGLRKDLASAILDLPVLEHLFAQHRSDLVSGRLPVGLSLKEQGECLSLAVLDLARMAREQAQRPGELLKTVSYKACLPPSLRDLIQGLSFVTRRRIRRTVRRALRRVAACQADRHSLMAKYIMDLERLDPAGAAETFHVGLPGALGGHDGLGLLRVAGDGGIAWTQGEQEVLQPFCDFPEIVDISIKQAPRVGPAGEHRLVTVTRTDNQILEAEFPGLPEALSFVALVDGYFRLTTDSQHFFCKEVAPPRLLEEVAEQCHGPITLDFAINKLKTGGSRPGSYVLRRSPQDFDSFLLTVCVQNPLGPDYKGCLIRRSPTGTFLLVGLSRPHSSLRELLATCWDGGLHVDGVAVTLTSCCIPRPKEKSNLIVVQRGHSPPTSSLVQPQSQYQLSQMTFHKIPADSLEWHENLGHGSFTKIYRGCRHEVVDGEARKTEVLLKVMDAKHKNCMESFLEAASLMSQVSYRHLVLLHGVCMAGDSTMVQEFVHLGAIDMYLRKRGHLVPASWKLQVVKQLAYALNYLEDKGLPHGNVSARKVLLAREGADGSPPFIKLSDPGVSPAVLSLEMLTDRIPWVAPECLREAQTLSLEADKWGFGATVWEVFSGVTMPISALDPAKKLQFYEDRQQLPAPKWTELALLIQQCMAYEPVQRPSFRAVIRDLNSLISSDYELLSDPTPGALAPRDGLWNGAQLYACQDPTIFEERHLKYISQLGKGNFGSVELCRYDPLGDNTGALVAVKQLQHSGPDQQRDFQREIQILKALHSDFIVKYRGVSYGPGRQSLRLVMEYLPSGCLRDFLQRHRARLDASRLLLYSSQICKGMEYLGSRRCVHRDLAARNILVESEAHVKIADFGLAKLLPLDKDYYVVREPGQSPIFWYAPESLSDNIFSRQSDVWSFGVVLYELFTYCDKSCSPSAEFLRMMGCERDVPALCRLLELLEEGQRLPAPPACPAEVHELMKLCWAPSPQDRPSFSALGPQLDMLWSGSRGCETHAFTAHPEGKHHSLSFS
Kind of test: JAK kinase inhibition assay (EZ Reader, peptide substrate phosphorylation) - JAK3. The settings on record: JAK3 kinase 1 nM; 8 concentration points, max 10 μM.
Description: as §2, §3, §4, §5, §6, §7, §8
The compound was dissolved in dimethyl sulfoxide and diluted to 10 mM concentration, a certain volume of solution was taken and diluted to 0.6 mM concentration, 10 μL of the 0.6 mM dilution was added to a 384-well microplate, and then was diluted 3-fold with a total of 8 concentration points. […]
Positive control (HPE1): Ref2, final concentration: 10 μM
as §9, §10, §11, §12, §13, §14, §15, §16, §17, §18, §19, §20, §21

Test [4] addresses Tyk2 (Homo sapiens, UniProt P29597). Kind of test: JAK kinase inhibition assay (EZ Reader, peptide substrate phosphorylation) - Tyk2. The settings on record: Tyk2 kinase 1 nM; 8 concentration points, max 10 μM. In outline: as §1

Each structure is given as a SMILES string.

Chain of JAK1 (P23458 whole entry): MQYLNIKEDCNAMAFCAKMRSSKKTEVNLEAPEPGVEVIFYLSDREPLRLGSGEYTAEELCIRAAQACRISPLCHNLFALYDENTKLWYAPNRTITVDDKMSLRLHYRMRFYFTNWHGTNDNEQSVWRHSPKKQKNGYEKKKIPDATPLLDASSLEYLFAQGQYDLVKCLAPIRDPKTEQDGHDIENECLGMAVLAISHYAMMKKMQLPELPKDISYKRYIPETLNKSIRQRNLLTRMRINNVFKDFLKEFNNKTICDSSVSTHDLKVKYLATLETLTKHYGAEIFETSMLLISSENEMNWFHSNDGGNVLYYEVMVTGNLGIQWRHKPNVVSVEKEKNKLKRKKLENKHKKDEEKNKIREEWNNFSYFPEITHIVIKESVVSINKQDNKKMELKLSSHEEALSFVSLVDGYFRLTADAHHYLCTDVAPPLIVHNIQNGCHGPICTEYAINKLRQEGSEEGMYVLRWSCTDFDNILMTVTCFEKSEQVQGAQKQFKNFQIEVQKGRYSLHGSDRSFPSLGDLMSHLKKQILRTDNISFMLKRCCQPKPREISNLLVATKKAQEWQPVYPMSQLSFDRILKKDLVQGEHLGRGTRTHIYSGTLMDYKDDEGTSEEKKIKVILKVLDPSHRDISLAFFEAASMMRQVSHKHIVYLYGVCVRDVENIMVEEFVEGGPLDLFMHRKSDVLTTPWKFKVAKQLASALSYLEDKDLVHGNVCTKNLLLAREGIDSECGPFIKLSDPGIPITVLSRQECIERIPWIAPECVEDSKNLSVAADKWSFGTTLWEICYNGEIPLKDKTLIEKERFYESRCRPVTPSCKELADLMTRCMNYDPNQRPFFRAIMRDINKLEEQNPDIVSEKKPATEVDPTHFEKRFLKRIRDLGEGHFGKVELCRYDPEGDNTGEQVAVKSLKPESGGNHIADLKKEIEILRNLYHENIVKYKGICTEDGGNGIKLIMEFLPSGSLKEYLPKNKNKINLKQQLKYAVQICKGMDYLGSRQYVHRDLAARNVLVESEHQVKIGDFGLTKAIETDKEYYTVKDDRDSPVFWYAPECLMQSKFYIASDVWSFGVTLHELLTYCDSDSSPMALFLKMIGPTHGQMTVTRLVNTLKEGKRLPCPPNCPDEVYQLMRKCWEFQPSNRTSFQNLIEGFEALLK
Chain of JAK2 (O60674 whole entry): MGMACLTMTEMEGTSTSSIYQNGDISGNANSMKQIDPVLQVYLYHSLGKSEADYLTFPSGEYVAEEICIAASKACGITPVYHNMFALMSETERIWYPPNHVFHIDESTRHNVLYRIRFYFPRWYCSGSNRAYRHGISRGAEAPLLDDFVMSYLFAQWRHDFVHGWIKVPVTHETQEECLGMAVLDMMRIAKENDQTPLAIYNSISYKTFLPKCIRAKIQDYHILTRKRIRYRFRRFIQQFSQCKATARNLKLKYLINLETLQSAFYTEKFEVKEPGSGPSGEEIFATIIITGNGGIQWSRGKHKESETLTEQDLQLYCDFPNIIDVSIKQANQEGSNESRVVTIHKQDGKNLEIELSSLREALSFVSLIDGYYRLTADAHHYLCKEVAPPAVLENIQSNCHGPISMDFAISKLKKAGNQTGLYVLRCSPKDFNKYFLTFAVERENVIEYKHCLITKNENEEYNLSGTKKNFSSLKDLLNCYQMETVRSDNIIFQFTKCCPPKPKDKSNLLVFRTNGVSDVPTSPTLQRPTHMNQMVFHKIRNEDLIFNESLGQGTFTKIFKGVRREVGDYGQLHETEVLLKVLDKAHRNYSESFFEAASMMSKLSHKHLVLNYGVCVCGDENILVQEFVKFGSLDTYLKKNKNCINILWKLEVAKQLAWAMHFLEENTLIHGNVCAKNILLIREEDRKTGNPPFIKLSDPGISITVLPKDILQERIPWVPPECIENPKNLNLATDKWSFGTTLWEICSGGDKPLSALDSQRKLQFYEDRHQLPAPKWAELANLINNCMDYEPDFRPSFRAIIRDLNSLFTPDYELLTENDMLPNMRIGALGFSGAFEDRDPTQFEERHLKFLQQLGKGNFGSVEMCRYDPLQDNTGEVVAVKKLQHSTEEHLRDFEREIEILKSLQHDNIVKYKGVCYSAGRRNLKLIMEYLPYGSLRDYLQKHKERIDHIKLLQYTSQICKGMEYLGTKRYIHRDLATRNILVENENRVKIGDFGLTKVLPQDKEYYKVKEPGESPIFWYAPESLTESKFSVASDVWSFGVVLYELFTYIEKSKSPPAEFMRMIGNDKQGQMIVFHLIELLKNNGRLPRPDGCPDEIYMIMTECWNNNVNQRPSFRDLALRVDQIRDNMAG
Chain of Tyk2 (P29597 whole entry): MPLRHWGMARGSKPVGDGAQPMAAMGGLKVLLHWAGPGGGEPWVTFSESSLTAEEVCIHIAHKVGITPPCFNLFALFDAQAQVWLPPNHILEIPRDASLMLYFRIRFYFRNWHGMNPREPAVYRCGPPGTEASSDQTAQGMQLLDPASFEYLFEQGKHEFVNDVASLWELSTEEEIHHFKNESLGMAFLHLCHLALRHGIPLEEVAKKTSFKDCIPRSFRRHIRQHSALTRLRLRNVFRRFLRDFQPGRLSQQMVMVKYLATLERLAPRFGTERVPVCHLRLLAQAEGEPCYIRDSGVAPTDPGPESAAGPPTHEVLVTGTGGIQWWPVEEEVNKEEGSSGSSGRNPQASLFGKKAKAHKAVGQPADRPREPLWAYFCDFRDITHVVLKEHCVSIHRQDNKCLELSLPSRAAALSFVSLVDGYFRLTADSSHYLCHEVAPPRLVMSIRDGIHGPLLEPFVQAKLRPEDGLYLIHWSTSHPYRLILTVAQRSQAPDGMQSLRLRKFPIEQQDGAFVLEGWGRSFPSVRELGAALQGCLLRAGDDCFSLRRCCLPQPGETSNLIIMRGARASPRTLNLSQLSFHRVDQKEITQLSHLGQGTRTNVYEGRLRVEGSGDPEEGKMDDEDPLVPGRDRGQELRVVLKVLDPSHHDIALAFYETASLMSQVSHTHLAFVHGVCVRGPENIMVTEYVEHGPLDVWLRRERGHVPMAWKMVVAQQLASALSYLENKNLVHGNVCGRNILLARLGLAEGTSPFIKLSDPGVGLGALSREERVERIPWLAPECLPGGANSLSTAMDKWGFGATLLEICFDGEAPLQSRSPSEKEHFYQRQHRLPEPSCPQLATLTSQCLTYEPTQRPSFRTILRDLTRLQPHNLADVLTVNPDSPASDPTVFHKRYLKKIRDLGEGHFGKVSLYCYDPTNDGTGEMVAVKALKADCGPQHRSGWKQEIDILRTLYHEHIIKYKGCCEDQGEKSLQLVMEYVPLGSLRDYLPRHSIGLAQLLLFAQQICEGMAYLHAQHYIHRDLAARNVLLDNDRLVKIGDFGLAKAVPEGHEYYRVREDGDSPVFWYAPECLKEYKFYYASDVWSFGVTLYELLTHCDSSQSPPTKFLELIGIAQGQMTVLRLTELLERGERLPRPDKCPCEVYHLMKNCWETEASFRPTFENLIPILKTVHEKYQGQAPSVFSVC

As to `Cn1cc(Nc2nccc(-c3ccc(C(=O)NCC(F)(F)F)cc3)n2)cn1` [TDM-180748, 4-(2-((1-methyl-1H-pyrazol-4-yl)amino)pyrimidin-4-yl)-N-(2,2,2-trifluoroethyl)benzamide], the IC50 in test [1] is 0.1 to 1 µM; in test [2] it was 0.1 to 1 µM; in test [3] it was 1 to 10 µM; in test [4], 0.1 to 1 µM.

On to `Cn1cc(Nc2nccc(-c3ccc(C(=O)N4CCS(=O)(=O)CC4)cc3)n2)cn1` [TDM-180749], for which the IC50 in test [1] was 1 to 10 µM; in test [2], 1 to 10 µM; in test [3], ≥ 10 µM; in test [4], 1 to 10 µM.

`Cn1cc(Nc2nccc(-c3ccc(NC(=O)CC(F)(F)F)cc3)n2)cn1` [TDM-180754, 3,3,3-trifluoro-N-(4-(2-((1-methyl-1H-pyrazol-4-yl)amino)pyrimidin-4-yl)phenyl)propanamide]: the IC50 is < 0.1 µM in test [1], < 0.1 µM in test [2], 1 to 10 µM in test [3] and 0.1 to 1 µM in test [4].

Regarding `Cn1cc(Nc2nccc(-c3ccc(NC(=O)C4CC4)cc3)n2)cn1` [TDM-180755, N-(4-(2-((1-methyl-1H-pyrazol-4-yl)amino)pyrimidin-4-yl)phenyl)cyclopropanecarboxamide], the IC50 in test [1] is < 0.1 µM; in test [2] it was < 0.1 µM; in test [3], 1 to 10 µM; in test [4], < 0.1 µM.

In the case of `Cn1cc(Nc2nccc(-c3ccc(C(=O)NCC(F)(F)F)nc3)n2)cn1` [TDM-180756, 5-(2-((1-methyl-1H-pyrazole-4-yl)amino)pyrimidin-4-yl)-N-(2,2,2-trifluoroethyl)pyridinecarboxamide], the IC50 lay within 0.1 to 1 µM in test [1], 0.1 to 1 µM in test [2], 1 to 10 µM in test [3] and 0.1 to 1 µM in test [4].

In the case of `Cn1cc(Nc2nccc(-c3ccc(NC(=O)C4CC4(F)F)cc3)n2)cn1` (stereo not shown) [TDM-180757, 2,2-difluoro-N-(4-(2-((1-methyl-1H-pyrazol-4-yl)amino)pyrimidin-4-yl)phenyl)cyclopropane-1-carboxamide], the IC50 in test [1] was < 0.1 µM; in test [2], < 0.1 µM; in test [3], 0.1 to 1 µM; in test [4], < 0.1 µM.

With `Cn1cc(Nc2nccc(-c3ccc(C(=O)NC4CC4(F)F)cc3)n2)cn1` (stereo not shown) [TDM-180758, N-(2,2-difluorocyclopropyl)-4-(2-((1-methyl-1H-pyrazol-4-yl)amino)pyrimidin-4-yl)benzamide], the concentration for half-maximal inhibition (IC50) in test [1] fell in the range of 0.1 to 1 µM; in test [2] it was 1 to 10 µM; in test [3] it was 1 to 10 µM; in test [4] it was 1 to 10 µM.

As for `COCC(=O)Nc1ccc(-c2ccnc(Nc3cnn(C)c3)n2)cc1` [TDM-180759, 2-methoxy-N-(4-(2-((1-methyl-1H-pyrazol-4-yl)amino)pyrimidin-4-yl)phenyl)acetamide], the concentration for half-maximal inhibition (IC50) in test [1] was 1 to 10 µM; in test [2], 1 to 10 µM; in test [3], ≥ 10 µM; in test [4] it was 1 to 10 µM.

On to `Cn1cc(Nc2nccc(-c3ccc(CNCC(F)(F)F)cc3)n2)cn1` [TDM-180760, N-(1-methyl-1H-pyrazol-4-yl)-4-(4-(((2,2,2-trifluoroethyl)amino)methyl)phenyl)pyrimidin-2-amine], for which the IC50 in test [1] is 0.1 to 1 µM; in test [2], 1 to 10 µM; in test [3], ≥ 10 µM; in test [4], 0.1 to 1 µM.

In the case of `Cn1cc(Nc2nccc(-c3ccc(CNCC#N)cc3)n2)cn1` [TDM-180761, 2-((4-(2-((1-methyl-1H-pyrazol-4-yl)amino)pyrimidin-4-yl)benzyl)amino)acetonitrile], the IC50 in test [1] is 0.1 to 1 µM; in test [2], 1 to 10 µM; in test [3] it was ≥ 10 µM; in test [4], 0.1 to 1 µM.

Turning to `Cn1cc(Nc2nccc(-c3ccc(C(=O)NCC#N)nc3)n2)cn1` [TDM-180762, N-(cyanomethyl)-5-(2-((1-methyl-1H-pyrazol-4-yl)amino)pyrimidin-4-yl)pyridinecarboxamide], the half-inhibitory concentration (IC50) lay in the range of 0.1 to 1 µM in test [1], 0.1 to 1 µM in test [2], 1 to 10 µM in test [3] and 0.1 to 1 µM in test [4].

As for `Cn1cc(Nc2nccc(-c3ccc(-n4nccc4C4CC4)cc3)n2)cn1` [TDM-180763, 4-(4-(5-cyclopropyl-1H-pyrazol-1-yl)phenyl)-N-(1-methyl-1H-pyrazol-4-yl)pyrimidin-2-amine], the IC50 in test [1] was 10 µM; in test [2], 1 to 10 µM; in test [3], ≥ 10 µM; in test [4], 1 to 10 µM.

Regarding `Cn1cc(Nc2nccc(-c3ccc(C(=O)N4CCS(=O)(=O)CC4)nc3)n2)cn1` [TDM-180764, (1,1-sulfur dioxide) (5-(2-((1-methyl-1H-pyrazol-4-yl)amino)pyrimidin-4-yl)pyridin-2-yl)methanone], the concentration for half-maximal inhibition (IC50) in test [1] is 1 to 10 µM; in test [2], 1 to 10 µM; in test [3], ≥ 10 µM; in test [4], 1 to 10 µM.

One may read the IC50 as the concentration that inhibits the measured activity by half.
